What is called IC50 is the concentration at which inhibition is half-maximal. Read a high IC50 as a need for much substance.

For data set [1], the system named is B16 cells. It counts as cell-based, mouse. The following applies: 24 h. As for the experimental part: (§1) The MTT cell proliferation assay was used to investigate the anticancer activity and cytotoxicity of MAPs against cancer cell lines (HeLa, A549, SGC-7901, and B16) and normal cells (3T3-L1), respectively. Cells (5 × 10^3) were seeded in 96-well plates and incubated overnight. The peptide samples were then added to cells with final concentrations ranging from 1 μM to 125 μM. After 24 h, 20 μL of 5 mg/mL MTT solution in PBS was added to the cells and treated for 4 h at 37 °C. The formazan crystals were dissolved by 150 μL of dimethyl sulfoxide (DMSO). Finally, the absorbance was determined at 492 nm. The results were expressed as IC50, representing the concentration at which cell viability was reduced by 50%. All assays were repeated in triplicate.

The test system of data set [2] is 3T3-L1 cells. It counts as cell-based, mouse. The following applies: 24 h. The protocol:
as §1

For data set [3], the system named is S. epidermidis ATCC12228. It counts as cell-based. The following applies: ATCC12228, 24 h. As for the experimental part:
(§2) Then, 10 μL of peptides was added. […] All assays were repeated in triplicate.

The subject of data set [4] is P. aeruginosa ATCC27853. Format: cell-based. The following applies: ATCC27853, 24 h. As for the experimental part: as §2
In data set [5] the test system is gram-negative bacteria (P. aeruginosa and E. coli). It counts as cell-based. The protocol:
as §2

Data set [6] relates to E. coli ATCC25922. It counts as cell-based. The following applies: ATCC25922, 24 h. As for the experimental part:
as §2

For data set [7], the system named is S. aureus ATCC25923. It counts as cell-based. The following applies: ATCC25923, 24 h. As for the experimental part: as §2
The test system of data set [8] is PC/PG (7:3 w/w) LUVs. The experiment in a line: Tryptophan fluorescence with LUVs. Format: binding. The following applies: PC/PG (7:3 w/w) LUVs versus HEPES buffer, 25 °C. The source says: (§3) In order to investigate the interaction between peptides and difference types of cell membranes, three different LUVs were used to mimic a prokaryotic cell membrane (PC/PG), a normal eukaryotic cell membrane (PC/Chol), and a cancer cell membrane (PC/SM/PE/PS/Chol). Tryptophan residue in the peptide sequence was used as a fluorescent probe to examine the interaction of peptides with model membranes. […] For example, in the PC/PG (7:3 w/w) anionic prokaryotic mimicking model membrane, peptides V13L and A12L/A20L had the strongest hydrophobicity with blue shift values of approximately 37 nm and 38 nm, respectively. Conversely, peptide V13E with a negative charge of glutamic acid residue, and peptide L6A/L17A with the lowest hydrophobicity had blue shift values of approximately 18 nm and 17 nm, respectively. […] In addition, within PC/SM/PE/PS/Chol (4.35:4.35:1:0.3:1 w/w) as a cancer-mimicking model membrane, the same results could be obtained in that peptide hydrophobicity correlates with anticancer activity and the blue shift values of peptides.
(§4) In accordance with previously described methods, LUVs were prepared with PC/PG (7:3 w/w), PC/Chol (8:1 w/w), and PC/SM/PE/PS/Chol (4.35:4.35:1:0.3:1 w/w) to mimic prokaryotic cell, […], membranes, respectively. Lipids using the freeze-thaw method as described previously, followed by extrusion through […] double-stacked nuclepore filters using an Mini-Extruder (Avanti Polar Lipids, Inc.)[11][27].
(§5) Three kinds of LUVs were prepared and cultured in HEPES buffer (pH 7.4, 10 mM HEPES, 150 mM NaCl) and the molar concentration was adjusted to 100 μM. A total of 14 μL of 100 μM MAPs was mixed with 686 μL of 100 μM liposomes at 25 °C for 10 min. A Shimadzu RF-5301PC, (excitation wavelength of […], emission wavelength of 300–450 nm) was used to measure the tryptophan fluorescence. Potassium iodide (KI) as a quencher was added to the previous reaction system for a final concentration of 0.02–0.08 M, respectively. The experimental data were plotted according to the Stern–Volmer equation F0/F = 1 + Ksv[Q], where F0 and F are the fluorescence intensity in the absence or presence of a quencher at concentration [Q], respectively, and Ksv is the Stern–Volmer quenching constant.

Data set [9] deals with PC/SM/PE/PS/Chol (4.35:4.35:1:0.3:1 w/w) LUVs. The experiment in a line: Tryptophan fluorescence with LUVs. Format: binding. The following applies: PC/SM/PE/PS/Chol (4.35:4.35:1:0.3:1 w/w) LUVs versus HEPES buffer, 25 °C.
From the text: as §3, §4, §5

Data set [10] relates to PC/Chol (8:1 w/w) LUVs. In words: Tryptophan fluorescence with LUVs. It counts as binding. The following applies: PC/Chol (8:1 w/w) LUVs versus HEPES buffer, 25 °C.
From the text: as §3, §4, §5

For data set [11], the system named is HeLa cells. Format: cell-based, human. The following applies: 24 h. As for the experimental part: as §1
Data set [12] concerns A549 cells. It counts as cell-based, human. The following applies: 24 h. The protocol:
as §1

The test system of data set [13] is SGC7901 cells. It counts as cell-based, human. The following applies: 24 h. As for the experimental part:
as §1

Data set [14] is described as follows: RP-HPLC retention time (peptide hydrophobicity). Format: physicochemical. The following applies: used as measure of peptide hydrophobicity. The protocol:
All peptides were synthesized by solid-phase peptide synthesis using Fmoc (9-fluorenyl-methoxycar-bonyl) chemistry and rink amide 4-methylbenzhydrylamine resin (MBHA resin; 0.8 mmol/g), as described previously. The crude peptides were purified on a LC-6A preparative reversed-phase high performance liquid chromatography (RP-HPLC, Shimadzu, Kyoto, Japan) using a Zorbax 300 SB-C8 column (250 × 9.4 mm inner diameter, […] particle size, 300 Å pore size), as described previously. The purity of the peptides was characterized by analytical RP-HPLC, mass spectrometry, and amino acid analysis.

Data set [15] can be described thus: Circular dichroism (CD) analysis. It counts as physicochemical. The following applies: for α-Helix (%) 50% TFE / α-Helix (%) Benign: relative to molar ellipticity of A12L/A20L in 50% TFE; for [θ]222 Benign / [θ]222 50% TFE: CD, 25 °C; for [θ]222 Benign: benign buffer pH 7.0, 100 mM KCl, 50 mM KH2PO4/K2HPO4; for [θ]222 50% TFE: benign buffer:TFE 1:1 vol/vol; for α-Helix (%) Benign: benign buffer. As for the experimental part:
The secondary structures of the peptides were determined using a Jasco J-810 CD spectrometer (Jasco, Easton, MD) at 25 °C [12]. The benign buffer (pH 7.0, 100 mM KCl, 50 mM KH2PO4/K2HPO4) was used to simulate the hydrophilic environment and 50% 2,2,2-trifluoroethanol (TFE) (benign buffer: TFE = 1: 1, vol/vol) was used to simulate the hydrophobic environment. The mean residue molar ellipticities at 222 nm, [θ]222 (degree·cm^2·dmol^−1), were used to calculate the relative helical contents of MAPs[24].
CD spectroscopy illustrated the secondary structure of peptide analogs under benign environment and 50% TFE to mimic the hydrophobic conditions of cell membranes. CD results are shown in Supplementary Table S2 and Fig. S1. […] The helical content (%) of peptides in two groups relative to the molar ellipticity value of the peptide A12L/A20L in 50% TFE. In addition, except the peptide of V13E, the relative helicity of the peptides are in the same order of V13L>V13A>V13S>V13K and A12L/A20L>A20L>L6A>L6A/L17A in the benign and hydrophobic environments and also in the same order with the peptide hydrophobicity.
A general note: Circular dichroism is the unequal absorption of left and right circularly polarised light.

Data set [16] relates to gram-positive bacteria (S. aureus and S. epidermidis). It counts as cell-based. As for the experimental part:
as §2

As to “Ac-KWKSFAKTFKSAKKTVLHTALKAISS-NH2 [Peptide L6A]”, the concentration for half-maximal inhibition (IC50) in data set [1] was 74.7 µM; in data set [2], 87.3 µM; in [11] it was 94.7 µM; in data set [12] it was 92.4 µM; in data set [13] it was 78.9 µM. Further, in data set [3], the “G+ MIC S. epidermidis ATCC12228” value is 64 µM. In data set [4], the “G− MIC P. aeruginosa ATCC27853” value was determined as 125 µM. For the same substance, the “G− MIC GM” value in [5] amounted to 89.44 µM. Besides, the “G− MIC E. coli ATCC25922” value in data set [6] came to 64 µM. The “G+ MIC S. aureus ATCC25923” value in data set [7] is more than 125 µM. Moreover, the “PC/PG Blue shift” value in data set [8] is listed as 19 nm. Moreover, the “PC/SM/PE/PS/Chol Blueshift” value in [9] was 23 nm. For the same substance, the “PC/Chol Blue shift” value in data set [10] was determined as 1 nm. Moreover, the “tR (RP-HPLC retention time)” value in [14] stood at 36.053 min. In [15], the “α-Helix (%) 50% TFE” value amounted to 70.67%. The “[θ]222 Benign” value in [15] is recorded as −3836.18 degree·cm^2·dmol^−1. Besides, the “[θ]222 50% TFE” value in data set [15] was −30626.20 degree·cm^2·dmol^−1. In addition, the “α-Helix (%) Benign” value in data set [15] is listed as 8.85%.
For “Ac-KWKSFLKTFKSAAKTVLHTALKAISS-NH2 [Peptide V13A]”, the IC50 in data set [1] was determined as 3.62 µM; in [2] it was 6.79 µM; in [11] it was 5.52 µM; in data set [12] it was 6.83 µM; in [13], 2.33 µM. Besides, in data set [3], the “G+ MIC S. epidermidis ATCC12228” value came out at 2 µM. The “G− MIC P. aeruginosa ATCC27853” value in data set [4] worked out at 8 µM. In data set [5], the “G− MIC GM” value is 5.66 µM. Also, the “G− MIC E. coli ATCC25922” value in [6] worked out at 4 µM. Further, the “G+ MIC GM” value in data set [16] was determined as 4 µM. Moreover, the “G+ MIC S. aureus ATCC25923” value in data set [7] came out at 8 µM. Besides, in data set [8], the “PC/PG Blue shift” value is reported as 34 nm. Besides, the “PC/Chol Blue shift” value in [10] was found to be 4 nm. The “tR (RP-HPLC retention time)” value in data set [14] is recorded as 47.337 min. For the same substance, in [15], the “α-Helix (%) 50% TFE” value was found to be 79.68%. Also, the “[θ]222 Benign” value in [15] is −6524.79 degree·cm^2·dmol^−1. For the same substance, the “[θ]222 50% TFE” value in data set [15] is recorded as −34527.20 degree·cm^2·dmol^−1. The “α-Helix (%) Benign” value in data set [15] is reported as 15.06%.
“Ac-KWKSFLKTFKSASKTVLHTALKAISS-NH2 [Peptide V13S]”: the IC50 in data set [1] amounted to 5.61 µM; in [2] it was 17 µM; in data set [11], 12.2 µM; in data set [12], 12.1 µM; in data set [13] it was 4.27 µM. In [3], the “G+ MIC S. epidermidis ATCC12228” value is 4 µM. Moreover, the “G− MIC P. aeruginosa ATCC27853” value in data set [4] was determined as 8 µM. For the same substance, the “G− MIC GM” value in data set [5] was 8 µM. Besides, the “G− MIC E. coli ATCC25922” value in [6] is 8 µM. Also, in [16], the “G+ MIC GM” value stood at 5.66 µM. In addition, in data set [7], the “G+ MIC S. aureus ATCC25923” value came to 8 µM. For the same substance, the “PC/PG Blue shift” value in [8] is given as 27 nm. Also, in data set [10], the “PC/Chol Blue shift” value came to 3 nm. Also, in data set [14], the “tR (RP-HPLC retention time)” value turned out to be 43.038 min. Also, in data set [15], the “α-Helix (%) 50% TFE” value is 71.30%. For the same substance, the “[θ]222 Benign” value in [15] is given as −4400.44 degree·cm^2·dmol^−1. Also, the “[θ]222 50% TFE” value in data set [15] is −30899.20 degree·cm^2·dmol^−1. Besides, the “α-Helix (%) Benign” value in data set [15] came out at 10.15%.
